Key:
TCR4 = assay: Single SABR-II co-incubation, NFAT-GFP Jurkat; format: cell-based, mouse; settings: TCR 4, Fig 5C
Excerpt: (§1) We performed systematic screening of the cloned TCRs against the I-Ag7 SABR-II library. Several TCRs along with a positive control (such as BDC2.5 or 4-8Ins) were screened individually against the library for each sort (Extended Data Fig. 6a and Supplementary Table 4). High- and low-confidence ES zones for each screened TCR were defined by the ES values of the control TCR’s cognate epitopes. For all putative cognate epitopes, single SABR-IIs were constructed, expressed in NFAT–GFP Jurkat cells and used for co-incubation with the corresponding TCRs. Co-incubation assays that yielded a GFP signal higher than that obtained in assays with no TCR were determined to be positive and the epitopes deemed true cognate ligands (Extended Data Fig. 6b,c). Using this strategy, we obtained epitopes in the high-confidence zone for eight TCRs (Fig. 3a and Extended Data Fig. 6b,d). Among numerous altered peptide ligands (APLs), these TCRs recognized the physiological InsC-ChgA HIP ([…] and analogs, recognized by TCR5, TCR6B, TCR9 and TCR34), InsC-Iapp HIP ([…] and analogs, recognized by TCR4 and TCR15) and InsB9:23 ([…] and analogs recognized by TCR24 and TCR37). These cognate high-confidence hits were validated using single SABR-II co-incubation assays (Fig. 3b and Extended Data Fig. 7a). Further validations using in vitro mouse interleukin-2 (mIL-2) secretion by TCR-expressing 5KC reporter cells[13] or CD25 expression by TCR-expressing splenic CD4^+ T cells upon stimulation with the cognate epitope were performed (Extended Data Fig. 7b,c). Furthermore, low-confidence hits were called for ten TCRs and tested in co-incubation assays.
(§2) For SABR library screens, 3 × 10^6 NFAT–GFP Jurkat cells expressing the SABR library were labeled with CellTrace Violet (BioLegend) according to the manufacturer’s protocol before incubation with 3 × 10^6 Jurkat cells expressing the TCR of interest. These mixtures were incubated in a six-well plate for 16–20 h. Cells were stained with anti-CD69-APC-Cy7 where indicated (BioLegend) and the top 1–2% of GFP^+CD69^+ cells were sorted for genomic DNA extraction, indexing and sequencing (see below). Multiplexed assays were scaled on a per-TCR basis (for example 3 × 10^6 for each of three TCRs against 9 × 10^6 library cells). For single SABR assays, unless otherwise defined, 5 × 10^5 SABR expressing NFAT–GFP Jurkat cells (or 5KC cells) were labeled with CellTrace Violet (BioLegend) according to the manufacturer’s protocol before incubation with 5 × 10^5 TCR-expressing Jurkat cells (or 5KC cells) in a round-bottom 96-well plate for 16–20 h. Cells were stained with anti-CD69-APC-Cy7 when indicated and acquired on the Attune NxT flow cytometer (Thermo Fisher Scientific). All flow analysis was performed using FlowJo (BD). For Daudi cell co-culture, 1 × 10^6 Jurkat cells expressing the TCR of interest were incubated with 1 × 10^6 Daudi cells expressing a SABR of interest for 3 days. On day 3, cells were labeled with anti-RT1B-PE and anti-Fas-APC-Cy7 before being acquired on the Attune NxT flow cytometer.

Jurkat cells, No TCR = assay: Single SABR-II co-incubation, background without TCR; format: cell-based, human; settings: No TCR
Excerpt: as §1, §2

TCR3 = assay: Single SABR-II co-incubation, NFAT-GFP Jurkat; format: cell-based, mouse; settings: TCR 3, Fig 5C
Excerpt: Given the predominance of HIP-reactive TCRs, we hypothesized that there may be other TCRs that respond to HIPs that were not encoded in our initial library configuration. While the initial I-Ag7 SABR-II library consisted of a number of HIPs, HIP formation is thought to be more widespread in pancreatic β-cells[52],[70]. Therefore, we sought to construct a defined, HIP-focused library to probe whether there were any undiscovered HIP-reactive TCRs that could be recognized by the clonally expanded TCR in our dataset. To test this, we utilized a published proteomic dataset, which predicted that several proteins that were highly expressed in secretory granules of β-cells may contribute to HIP formation. Using their predictions, we built a theoretical HIP library, in which all possible ‘left’ halves of the insulin C chain derived from natural cleavage products were fused to ‘right’ halves derived from secretory granule proteins (Fig. 5a). This 2,561-epitope library (12–25 amino acids per epitope) consisted of only HIPs and a small number of positive control epitopes (Supplementary Table 5). We screened the top three clonally expanded TCRs (TCR1, TCR2 and TCR3) against this library, as these TCRs had not been de-convoluted using the original library. […] To confirm that the HIP itself was important for the cognate interaction, we cloned single 14-mer epitopes into SABR-IIs consisting of seven amino acids of the left portion of the HIP and seven amino acids of the right portion of the HIP. In this way, no nine amino acids from either peptide sequence alone could occupy the binding pocket of I-Ag7, ensuring that TCR reactivity spanned the HIP junction. […] Of note, in all the epitopes that were tested, the ‘left’ half derived from insulin C was conserved, whereas the ‘right’ halves were derived from several other proteins (Fig. 5d). […] Moreover, the promiscuous binding of TCR3 to HIPs corroborates evidence from other NOD mouse-derived TCRs reacting to multiple HIPs[72].
as §2

TCR5 = assay: Single SABR-II co-incubation, NFAT-GFP Jurkat; format: cell-based, mouse; settings: TCR 5, Ext. Data Fig. 6C, 18-20 hr
Excerpt: as §1, §2

BDC2.5 TCR = assay: I-Ag7 SABR-II library screen, enrichment score; format: cell-based, mouse; settings: I-Ag7 library
Excerpt: We then asked whether SABR-IIs could be used to present a library of epitopes for CD4^+ T cell antigen discovery. To that end, we constructed a SABR-II library to present epitopes derived from pancreatic islets in I-Ag7 by curating a list of 4,075 published epitopes from the Immune Epitope Database (iedb.org)[50] and a study by Wan et al.[51] (Supplementary Table 1). Of note, this defined library consisted of unmodified epitopes from endogenous proteins, synthetic mimotopes, deamidated epitopes and hybrid insulin peptides (HIPs) that arise from post-translational fusion and are not genetically encoded in vivo[52],[53]. The epitope library was inserted into the I-Ag7 SABR-II backbone through pooled oligonucleotide synthesis, amplification and ligation-free cloning (Extended Data Fig. 3a). The I-Ag7 SABR-II-library was then expressed in NFAT–GFP Jurkat cells. We confirmed that after sequencing, the library accounted for a mean of 708 reads per epitope (Extended Data Fig. 3b). As a proof of concept, we performed co-incubation assays with Jurkat cells expressing the BDC2.5 TCR and sorted the top 1–2% of GFP^+CD69^+ cells at a rate of ~20 min per replicate with three replicates per TCR. We extracted the genomic DNA from sorted cells, amplified the SABR portion of the integrated proviruses and subjected the amplicons to Illumina sequencing (Extended Data Fig. 3c,d). The 1–2% sort gate represents >50-fold enrichment of cognate epitopes with minimal loss of signal (Extended Data Fig. 3e–h). Sequence reads were aligned to the I-Ag7 SABR-II backbone and the corresponding epitopes were scored based on their read counts. For each TCR under investigation, an enrichment score (ES) was determined for all the epitopes in a library. In each experiment, three replicates of a sort with TCR-expressing Jurkat cells were performed and reads were counted post-sequencing. In addition, three replicates of the unsorted library were also sequenced. A linear regression model was built using the unsorted library counts and used to determine the expected abundance of each epitope in the library. The ES was calculated based on the difference between the measured and the expected abundance of each epitope on a per-TCR basis (Fig. 1e). Based on ES values, two quantitative thresholds were used to determine putative cognate epitopes of a given TCR. A high-confidence zone containing clear outliers with a high ES and a low-confidence zone containing weak outliers with a moderately high ES were determined (Fig. 1e). This two-tiered strategy was used to call putative hits from screens. All the top-scoring epitopes for the BDC2.5 TCR were known BDC2.5 ligands containing the WXRM(D/E) motif (Fig. 1f,g, enriched ligands in red), a well-characterized trait of the BDC2.5 TCR[43],[54]–[56]. Across several independent experiments there was limited variation in ES values for the same TCRs and several epitopes fell into high- or low-confidence zones consistently (Extended Data Fig. 4a). Using a different TCR that was isolated from NOD mice, 4-8Ins[57], which recognized the InsB9:23 epitope ([…]), we observed a similar pattern of ES for cognate epitopes (Extended Data Fig. 4b).
For SABR library screens, 3 × 10^6 NFAT–GFP Jurkat cells expressing the SABR library were labeled with CellTrace Violet (BioLegend) according to the manufacturer’s protocol before incubation with 3 × 10^6 Jurkat cells expressing the TCR of interest. These mixtures were incubated in a six-well plate for 16–20 h. Cells were stained with anti-CD69-APC-Cy7 where indicated (BioLegend) and the top 1–2% of GFP^+CD69^+ cells were sorted for genomic DNA extraction, indexing and sequencing (see below). Multiplexed assays were scaled on a per-TCR basis (for example 3 × 10^6 for each of three TCRs against 9 × 10^6 library cells). […]

[1] = Ext. Data Fig. 6C, 18-20 hr, technical replicate 1
[2] = Ext. Data Fig. 6C, 18-20 hr, technical replicate 2
[3] = EXPT1 of 8 biological experiments

Row | Sequence | %GFP+CD69+ cells of SABR-NFAT-GFP-Jurkat cells (TCR4; technical replicate 1) [%] | %GFP+CD69+ cells of SABR-NFAT-GFP-Jurkat cells (TCR4; technical replicate 2) [%] | %GFP+CD69+ cells of SABR-NFAT-GFP-Jurkat cells (Jurkat cells, No TCR; Fig 5C, technical replicate 1) [%] | %GFP+CD69+ cells of SABR-NFAT-GFP-Jurkat cells (Jurkat cells, No TCR; Fig 5C, technical replicate 2) [%] | %GFP+CD69+ cells of SABR-NFAT-GFP-Jurkat cells (TCR3; technical replicate 1) [%] | %GFP+CD69+ cells of SABR-NFAT-GFP-Jurkat cells (TCR3; technical replicate 2) [%] | %GFP+CD69+ cells of SABR-NFAT-GFP-Jurkat cells (TCR5; technical replicate 1) [%] | %GFP+CD69+ cells of SABR-NFAT-GFP-Jurkat cells (TCR5; technical replicate 2) [%] | %GFP+CD69+ cells of SABR-NFAT-GFP-Jurkat cells (Jurkat cells, No TCR; [1]) [%] | %GFP+CD69+ cells of SABR-NFAT-GFP-Jurkat cells (Jurkat cells, No TCR; [2]) [%] | Enrichment score (BDC2.5 TCR; [3]) | Enrichment score (BDC2.5 TCR; EXPT2 of 8) | Enrichment score (BDC2.5 TCR; EXPT3 of 8) | Enrichment score (BDC2.5 TCR; EXPT4 of 8) | Enrichment score (BDC2.5 TCR; EXPT5 of 8) | Enrichment score (BDC2.5 TCR; EXPT6 of 8) | Enrichment score (BDC2.5 TCR; EXPT7 of 8) | Enrichment score (BDC2.5 TCR; EXPT8 of 8)
1 | QLELGGSKDSDKGQ [14-mer hybrid insulin peptide spanning the fusion junction, TCR3 hit] | 9.32 | 9.4 | 9.03 | 10.7 | 10.5 | 9.28 | – | – | – | – | – | – | – | – | – | – | – | –
2 | EKAHHPIWARMDAKK | – | – | – | – | – | – | 34.4 | 35.1 | 0.55 | 0.54 | 0.000952 | 0.00052 | 0.00087 | 0.00058 | 0.001178 | 0.001392 | 0.000919 | 0.000731
3 | SRLGLWVRMEQLAKELTAE | – | – | – | – | – | – | 21.9 | 19.4 | 1.58 | 1.53 | 0.001795 | 0.001184 | 0.002703 | 0.001978 | 0.002454 | 0.002768 | 0.002526 | 0.002128
4 | RLGLWSRMDQLAKELTAE | – | – | – | – | – | – | 56.2 | 56 | 1.36 | 1.22 | 0.001771 | 0.001151 | 0.002655 | 0.001435 | 0.002428 | 0.00271 | 0.002468 | 0.002661
5 | RRAGDLQTLWSRMDARR | – | – | – | – | – | – | 22.4 | 18.8 | 0.37 | 0.41 | 0.002517 | 0.001322 | 0.002797 | 0.002419 | 0.002428 | 0.002187 | 0.002605 | 0.002542
6 | SRLGLWSRMDQLAKELTAE | – | – | – | – | – | – | 73.5 | 71.6 | 1.65 | 1.6 | 0.002042 | 0.001129 | 0.002688 | 0.002123 | 0.003298 | 0.002741 | 0.00232 | 0.003121
7 | EKAHVPIWARMDAKK | – | – | – | – | – | – | 29.9 | 30.2 | 2.48 | 2.95 | 0.000866 | 0.000378 | 0.000722 | 0.00038 | 0.000744 | 0.001001 | 0.000451 | 0.000387
8 | EKAHLAIWARMDAKK | – | – | – | – | – | – | 79.9 | 77.9 | 0.84 | 1 | – | – | – | – | – | – | – | –
